This is an account of results in patent publication US20230303540A1 (Merck Sharp & Dohme LLC, priority 2020, published 2023).

This experiment has as its target GST-tagged truncated human mutant G2019S LRRK2 (Homo sapiens, UniProt Q5S007, G2019S). The experiment in a line: LRRK2 G2019S Km ATP LanthaScreen assay. The settings on record: 134 μM ATP (Km ATP), LRRKtide substrate, mean IC50 values; read-out: LRRK2 pIC50 (converted). The format is biochemical. The gist of the method: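 Compound preincubated 15 min at room temperature with enzyme in pH 8.5 Tris buffer (10 mM MgCl2). Then a 90 min reaction at ambient temperature with 134 μM (Km) ATP and fluorescein-LRRKtide. EDTA stop, Tb anti-phospho antibody TR-FRET; […]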
In general terms: TR-FRET usually uses a lanthanide donor and a delayed reading to cut background.
With `CC1(N2CCN(c3cc4nc(Nc5cnn(C6(C(F)(F)F)CC6)c5Cl)ncc4cc3Cl)CC2)COC1` [Ex-3.24, 6-chloro-N-{5-chloro-1-[1-(trifluoromethyl)cyclopropyl]-1H-pyrazol-4-yl}-7-[4-(3-methyloxetan-3-yl)piperazin-1-yl]quinazolin-2-amine], the IC50 is 3.68 nM.
On to `Clc1cc2cnc(Nc3cnn(C4CC4)c3Cl)nc2cc1N1CCc2[nH]ncc2C1` [Ex-3.25, 6-chloro-N-(5-chloro-1-cyclopropyl-1H-pyrazol-4-yl)-7-(1,4,6,7-tetrahydro-5H-pyrazolo[4,3-c]pyridin-5-yl) quinazolin-2-amine], for which the IC50 was 1.21 nM.
The value for `CC1(O)CCN(c2cc3nc(Nc4cnn(C5CC5)c4Cl)ncc3cc2Cl)CC1` [Ex-3.26, 1-{6-chloro-2-[(5-chloro-1-cyclopropyl-1H-pyrazol-4-yl)amino]quinazolin-7-yl}-4-methylpiperidin-4-ol] was 5.63 nM; that for `Cc1c(Nc2ncc3cc(Cl)c(N4C[C@H]5CC[C@@H](C4)[C@@]5(C)O)cc3n2)cnn1C1CC1` [Ex-3.27, (8-syn)-3-{6-chloro-2-[(1-cyclopropyl-5-methyl-1H-pyrazol-4-yl)amino]quinazolin-7-yl}-8-methyl-3-azabicyclo[3.2.1] octan-8-ol] was 0.486 nM; that for `OC1C2CC1CN(c1cc3nc(Nc4cnn(C5CC5)c4)ncc3cc1Cl)C2` (stereo not drawn) [Ex-3.28, 3-{6-chloro-2-[(1-cyclopropyl-1H-pyrazol-4-yl)amino]quinazolin-7-yl}-3-azabicyclo [3.1.1]heptan-6-ol] was 4.52 nM.
The value for `CN(C)c1cc2nc(Nc3cnn(C4CC4)c3)ncc2cc1Cl` [Ex-3.29, 6-chloro-N-2-(1-cyclopropyl-1H-pyrazol-4-yl)-N-7-,N-7-dimethylquinazoline-2,7-diamine] was 8.79 nM; that for `CC(C)(O)Cn1ncc(Nc2ncc3cc(Cl)c(N4C[C@H]5CC[C@@H](C4)[C@@]5(C)O)cc3n2)c1Cl` [Ex-3.30, (8-syn)-3-(6-chloro-2-{[5-chloro-1-(2-hydroxy-2-methylpropyl)-1H-pyrazol-4-yl]amino}quinazolin-7-yl)-8-methyl-3-azabicyclo[3.2.1] octan-8-ol] was 5.09 nM.
As for `COCC12CC(n3cc(Nc4ncc5cc(Cl)c(N6C[C@H]7CC[C@@H](C6)[C@@]7(C)O)cc5n4)cn3)(C1)C2` [Ex-3.31, (8-syn)-3-[6-chloro-2-({1-[3-(methoxymethyl)bicyclo[1.1.1]pentan-1-yl]-1H-pyrazol-4-yl}amino)quinazolin-7-yl]-8-methyl-3-azabicyclo[3.2.1]octan-8-ol], the figure is 2.08 nM; as for `CC(C)(O)Cn1cc(Nc2ncc3cc(Cl)c(N4C[C@H]5CC[C@@H](C4)[C@@]5(C)O)cc3n2)cn1` [Ex-3.32, (8-syn)-3-(6-chloro-2-{[1-(2-hydroxy-2-methylpropyl)-1H-pyrazol-4-yl]amino}quinazolin-7-yl)-8-methyl-3-azabicyclo[3.2.1]octan-8-ol], 0.393 nM.
In the case of `COCC12CC(n3cc(Nc4ncc5cc(Cl)c(N6CCC7(CCOC7)CC6)cc5n4)cn3)(C1)C2` [Ex-3.33, 6-chloro-N-{1-[3-(methoxymethyl)bicyclo[1.1.1]pentan-1-yl]-1H-pyrazol-4-yl}-7-(2-oxa-8-azaspiro [4.5]decan-8-yl)quinazolin-2-amine], the IC50 was 1.15 nM.
In the case of `COCC12CC(n3cc(Nc4ncc5cc(Cl)c(N6CCC7(CCCO7)CC6)cc5n4)cn3)(C1)C2` [Ex-3.34, 6-chloro-N-{1-[3-(methoxymethyl)bicyclo[1.1.1]pentan-1-yl]-1H-pyrazol-4-yl}-7-(1-oxa-8-azaspiro [4.5]decan-8-yl)quinazolin-2-amine], the IC50 was 0.594 nM.
The value for `O=C1COCC12CCN(c1cc3nc(Nc4cnn(C5CC5)c4Cl)ncc3cc1Cl)CC2` [Ex-3.36, 8-{6-chloro-2-[(5-chloro-1-cyclopropyl-1H-pyrazol-4-yl)amino]quinazolin-7-yl}-2-oxa-8-azaspiro[4.5]decan-4-one] was 3.02 nM.
